From US20230128252A1, “PHARMACEUTICAL COMPOSITIONS” (Shenzhen Pharmacin Co., Ltd., priority 2020, published 2023)
Converted amounts (≈) assume the structure as drawn.

Key:
[1] = Skin permeability of clofazimine preparations (vertical Franz diffusion cells); format: in vitro ADME, NU/NU nude mice; details: inner skin, 4 hours, solution
[2] = preparation of clofazimine carbomer gel with organic solvents; format: physicochemical; details: Carbomer 940 gel in water, pH 7.0
[3] = tested on: imiquimod-induced psoriasis like mouse model; assay: imiquimod-induced psoriasis like mouse model, PASI method; format: in vivo, C57BL/6J mice; details: Formulations 1-3, topical
Source text: Fifty C57BL/6J mice were random divided into 5 groups, naïve group, model group, Formulation 1-3 groups. All mice were shaved on the back. Naïve group was the negative group and as the blank control. The other four groups were locally applied with 5% imiquimod cream (sold under the tradename Aldara®) once a day for a week. […] In the last three days, the changes of skin lesions were observed and evaluated by PASI method. PASI method: the scores of erythema, scale and infiltration thickening in the skin lesions were scored respectively, and the sum of the three scores was the total score. PASI scoring standard: 0, none; 1, mild; 2, moderate; 3, severe; 4, extremely severe.

[4] = blood concentration after topical application in minipigs; format: in vivo, Bama minipigs
Description: Studies were performed to evaluate the blood concentration-time curve after topical application of Formulations 10-12 (clofazimine 0.01%, 0.03% and 0.1%) in Bama minipigs. 24 Bama minipigs (12 male and 12 female) were randomly divided into 4 groups (n=6), three groups received a single topical application of Formulations 10-12 (clofazimine 0.01%, 0.03% and 0.1%). […] In above 4 groups, Formulations 10-12 were applicated to 5% body surface area of Bama minipigs, that is, 1.5 mg ointment/cm^2 (corresponding to 0.15, 0.45, 1.5 μg API/cm^2 respectively). […] A validated LC-MS/MS method was used to determine the concentration of clofazimine in plasma and the pharmacokinetic parameters were calculated (the standard curve range of clofazimine is 0.0100˜10.0 ng/mL).

[5] = pharmacokinetics and tissue distribution after single-dose topical application in minipigs; format: in vivo, Bama minipigs; details: Formulation 11 (0.03%) single topical application
Description: Studies were performed to evaluate the pharmacokinetics and tissue distribution after a single-dose topical application of Formulation 11 (clofazimine 0.03%) in Bama minipigs. 24 Bama minipigs were divided into 6 groups (n=4), each group of minipigs received a single topical application of Formulation 11 (0.03%) at a dose of 1.5 mg ointment/cm^2. Blood samples, epidermis, dermis, subcutaneous tissue and subcutaneous muscle were collected at 0.5, 4, 24, 48, 72 and 96 hours (one time point for one group) after drug application. A validated LC-MS/MS method was used to determine the concentration of clofazimine in plasma, epidermis, dermis, subcutaneous tissues and subcutaneous muscle and the pharmacokinetic parameters were calculated (the standard curve range of clofazimine is 0.0100˜10.0 ng/mL).

[6] = cited from earlier work
[7] = tested on: chronic discoid lupus erythematosus; details: human clinical study; cited from earlier work
[8] = Solubility of clofazimine in various solvents; details: 25 °C, thermodynamic from solid
Description: Clofazimine was added to various solvents (2-5 mL) in a 10 mL glass vial, at 25° C., with stirring. […] This cycle was repeated until no further dissolution was observable. The suspension was then centrifuged and the supernatant filtered by microfiltration.

[9] = molecular target: Kv1.3 channels in human Jurkat E6-1 cells (Homo sapiens, UniProt P22001); assay: Inhibition of Kv1.3 channel current, voltage ramp protocol; details: for Inhibition ratio of Kv1.3 channel current in Jurkat E6-1 cells: n 3
Sequence of Kv1.3 channels in human Jurkat E6-1 cells (P22001 whole entry): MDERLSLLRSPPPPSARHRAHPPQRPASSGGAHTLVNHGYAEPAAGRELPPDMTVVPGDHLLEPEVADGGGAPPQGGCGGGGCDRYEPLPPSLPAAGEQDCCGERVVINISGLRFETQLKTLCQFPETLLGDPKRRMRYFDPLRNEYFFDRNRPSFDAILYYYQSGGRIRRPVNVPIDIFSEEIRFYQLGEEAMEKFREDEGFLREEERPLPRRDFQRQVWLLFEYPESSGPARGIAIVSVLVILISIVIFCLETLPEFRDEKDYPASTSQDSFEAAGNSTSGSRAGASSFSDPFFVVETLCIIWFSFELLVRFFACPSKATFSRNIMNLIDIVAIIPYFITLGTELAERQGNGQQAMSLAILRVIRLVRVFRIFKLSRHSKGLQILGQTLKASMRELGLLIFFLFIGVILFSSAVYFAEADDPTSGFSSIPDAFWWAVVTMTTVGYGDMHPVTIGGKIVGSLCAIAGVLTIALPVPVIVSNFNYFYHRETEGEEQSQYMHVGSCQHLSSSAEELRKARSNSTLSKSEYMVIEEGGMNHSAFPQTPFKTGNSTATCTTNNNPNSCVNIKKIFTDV

With `CC(C)/N=c1\cc2n(-c3ccc(Cl)cc3)c3ccccc3nc-2cc1Nc1ccc(Cl)cc1` [Clofazimine, N,5-bis(4-chlorophenyl)-3-propan-2-ylimino phenazin-2-amine] the clofazimine content ([1]; clofazimine 100 mg in 99.9 g Oleic acid) was 0.0577 ug/cm^2, the clofazimine content ([1]; clofazimine 100 mg in 99.9 g PEG 400) was 0.1174 ug/cm^2 and the clofazimine content ([1]; clofazimine 100 mg in 99.9 g Transuctol) was 0.0596 ug/cm^2. For the same compound, the clofazimine content ([1]; clofazimine 100 mg in 99.9 g Tween 20) was 0.0639 ug/cm^2, the clofazimine content ([1]; clofazimine 100 mg in 99.9 g Tween 80) was 0.0660 ug/cm^2 and the “outcome of gel preparation” value ([2]; solvent Laurocapram) was “formation of separated layers”. For the same compound, the “outcome of gel preparation” value ([2]; solvent Propylene glycol) was “clofazimine precipitation”, the “treatment effect on the imiquimod-induced psoriasis like mouse model” value [3] was “confirmed the treatment effect” and the clofazimine in plasma ([4]; repeated dose (0.03%, bid, 9 applications)) was “a very low level of clofazimine could be detected in plasma”. For the same compound, the clofazimine in plasma ([4]; single dose groups, majority of the samples) was “no clofazimine was detectable”, the clofazimine in plasma ([4]; single dose groups, minority of samples in the 0.01% and 0.1% groups, 1.5 mg ointment/cm^2, 5% body surface area) was “very low level of clofazimine (close to the detection limit of the instrument)” and the “gender difference in clofazimine absorption” value ([4]; topical, male and female) was “No significant gender difference”. For the same compound, the “median time to peak dermal concentration” value [5] was “about 4 h”, the “median time to peak epidermal concentration” value [5] was “about 0.5 h” and the “median time to peak subcutaneous muscle concentration” value [5] was “about 0.5 h”. The “median time to peak subcutaneous tissues concentration” value [5] was “about 4 h”, the tissue distribution [5] was “mainly distributed in the epidermis and dermis, and not absorbed into blood” and the “Log P” value [6] was 7.48. The pKa [6] was 8.37, the Water solubility ([6]; virtually insoluble) was 0.225 µg/mL and the “remission of chronic discoid lupus erythematosus” value [7] was “a majority of patients showed remission”. For the same compound, the solubility at 24 h ([8]; organic solvent or mixture) was 7480 µg/mL (≈ 15.8 mM), the solubility at 24 h ([8]; solvent, oil or lipid, Solubility, Castor oil) was 11000 µg/mL (≈ 23.3 mM) and the solubility at 24 h ([8]; solvent, oil or lipid, Solubility, Coconut oil) was 5100 µg/mL (≈ 10.8 mM). It also gave a solubility at 24 h ([8]; solvent, oil or lipid, Solubility, Corn oil) of 5800 µg/mL (≈ 12.3 mM), a solubility at 24 h ([8]; solvent, oil or lipid, Solubility, Glyceryl monooleate) of 8860 µg/mL (≈ 18.7 mM) and a solubility at 24 h ([8]; solvent, oil or lipid, Solubility, Isopropyl myristate) of 8510 µg/mL (≈ 18 mM). It also gave a solubility at 24 h ([8]; solvent, oil or lipid, Solubility, Soybean oil) of 5100 µg/mL (≈ 10.8 mM), a solubility at 24 h ([8]; solvent, organic solvent or mixture, Solubility, Ethanol) of 950 µg/mL (≈ 2.01 mM) and a solubility at 24 h ([8]; solvent, organic solvent or mixture, Solubility, Glycerol) of 490 µg/mL (≈ 1.04 mM). It also gave a solubility at 24 h ([8]; solvent, organic solvent or mixture, Solubility, Labrasol) of 25400 µg/mL (≈ 53.6 mM), a solubility at 24 h ([8]; solvent, organic solvent or mixture, Solubility, Laurocapram) of 46700 µg/mL (≈ 98.7 mM) and a solubility at 24 h ([8]; solvent, organic solvent or mixture, Solubility, Oleic acid polyethylene glycol glyceride) of 12200 µg/mL (≈ 25.8 mM). For the same compound, the solubility at 24 h ([8]; solvent, organic solvent or mixture, Solubility, PEG 400, 25° C.) was 9510 µg/mL (≈ 20.1 mM), the solubility at 24 h ([8]; solvent, organic solvent or mixture, Solubility, Polyglycerol fatty acid ester) was 4960 µg/mL (≈ 10.5 mM) and the solubility at 24 h ([8]; solvent, organic solvent or mixture, Solubility, Polyoxyethylene hydrogenated castor oil) was 8670 µg/mL (≈ 18.3 mM). For the same compound, the solubility at 24 h ([8]; solvent, organic solvent or mixture, Solubility, Propane 1,2-diol) was 420 µg/mL (≈ 0.887 mM), the solubility at 24 h ([8]; solvent, organic solvent or mixture, Solubility, Transcutol) was 21600 µg/mL (≈ 45.5 mM) and the solubility at 24 h ([8]; solvent, organic solvent or mixture, Solubility, Tween 20, 25° C.) was 7400 µg/mL (≈ 15.6 mM). For the same compound, the solubility at 24 h ([8]; solvent, organic solvent or mixture, Solubility, Tween 80, 25° C.) was 10100 µg/mL (≈ 21.3 mM), the IC50 [9] was 3.3 µM and the “Inhibition ratio of Kv1.3 channel current in Jurkat E6-1 cells” value (“Inhibition ratio” for short) ([9]; 0.3 μM) was 7.09 ± 0.86%. For the same compound, the “Inhibition ratio” value ([9]; 1 μM) was 18.89 ± 3.38%, the “Inhibition ratio” value ([9]; 3 μM) was 46.84 ± 4.55% and the “Inhibition ratio” value ([9]; 10 μM) was 70.11 ± 2.91%. The “Inhibition ratio” value ([9]; 20 μM) was 83.62 ± 1.99%.
